Our source for the herbicidal activity values is patent US11178871B2, “Herbicidal pyrimidine compounds” (BASF SE, priority 2016, dated 2021).

Common to all, as to format: in vivo
The test system of one assay is Amaranthus retroflexus. Kind of assay: greenhouse test, post-emergence treatment, AMARE. The source says: (§1) The culture containers used were plastic flowerpots containing loamy sand with approximately 3.0% of humus as the substrate. The seeds of the test plants were sown separately for each species.
(§2) For the post-emergence treatment, the test plants were first grown to a height of 3 to 15 cm, depending on the plant habit, and only then treated with the active ingredients which had been suspended or emulsified in water. For this purpose, the test plants were either sown directly and grown in the same containers, or they were first grown separately as seedlings and transplanted into the test containers a few days prior to treatment.
(§3) Depending on the species, the plants were kept at 10-25° C. or 20-35° C., respectively.
(§4) The test period extended over 2 to 4 weeks. During this time, the plants were tended, and their response to the individual treatments was evaluated.
(§5) Evaluation was carried out using a scale from 0 to 100. 100 means no emergence of the plants, or complete destruction of at least the aerial moieties, and 0 means no damage, or normal course of growth. A good herbicidal activity is given at values of at least 70 and a very good herbicidal activity is given at values of at least 85.
(§6) The plants used in the greenhouse experiments were of the following species: […]

In assay [1] the test system is Echinocloa crus-galli. Kind of assay: greenhouse test, post-emergence treatment, ECHCG. Particulars: post-emergence.
Source text: as §1, §2, §3, §4, §5, §6

In a further assay the test system is Alopecurus myosuroides. Kind of assay: greenhouse test, post-emergence treatment, ALOMY. Particulars: post-emergence.
Source text: as §1, §2, §3, §4, §5, §6

The next assay concerns Avena fatua. Kind of assay: greenhouse test, post-emergence treatment, AVEFA.
Source text: as §1, §2, §3, §4, §5, §6

For the next assay, the system named is Apera spica-venti. Description: greenhouse test, pre-emergence treatment, APESV.
Source text: as §1
(§7) For the pre-emergence treatment, the active ingredients, which had been suspended or emulsified in water, were applied directly after sowing by means of finely distributing nozzles. The containers were irrigated gently to promote germination and growth and subsequently covered with transparent plastic hoods until the plants had rooted. This cover caused uniform germination of the test plants, unless this had been impaired by the active ingredients.
as §3, §4, §5, §6

Assay [2] has as its system Echinocloa crus-galli. Kind of assay: greenhouse test, pre-emergence treatment, ECHCG.
Source text: as §1, §7, §3, §4, §5, §6

Each structure is given as a SMILES string.

As to `OC1(c2nc(C3CC3)ncc2-c2ccccc2Cl)CCCC1` [Ex. 127], the herbicidal activity entry with Amaranthus retroflexus (2000 g/ha) is on record as “very good (a very good herbicidal activity is given at values of at least 85)”.

For the compound `COC(=O)CCc1nc(C2CC2)ncc1-c1ccccc1Cl` [Ex. 132], the results for the herbicidal activity entry in the assay on Amaranthus retroflexus (2000 g/ha) and in the assay with Echinocloa crus-galli [1] (2000 g/ha) were “good (A good herbicidal activity is given at values of at least 70)” and “very good (a very good herbicidal activity is given at values of at least 85)”, respectively.

With `OCCc1nc(C2CC2)ncc1-c1ccccc1Cl` [Ex. 255], the herbicidal activity result in the assay on Amaranthus retroflexus (500 g/ha) is listed as “good (A good herbicidal activity is given at values of at least 70)”.

Take `Cc1nc(C)c(-c2nc(C3CC3)ncc2-c2cc(F)ccc2Cl)o1` [Ex. 284]: the herbicidal activity result with Alopecurus myosuroides (2000 g/ha), with Avena fatua (2000 g/ha), in the assay on Echinocloa crus-galli [1] (2000 g/ha), with Apera spica-venti (2000 g/ha) and in the assay with Echinocloa crus-galli [2] (2000 g/ha) was “very good (a very good herbicidal activity is given at values of at least 85)” each time.

On to `COc1cnc(O)nc1-c1nc(C2CC2)ncc1-c1ccccc1Cl` [Ex. 250], for which the herbicidal activity entry with Alopecurus myosuroides (2000 g/ha), in the assay on Avena fatua (2000 g/ha), in the assay on Echinocloa crus-galli [1] (2000 g/ha), with Apera spica-venti (2000 g/ha) and with Echinocloa crus-galli [2] (2000 g/ha) was “very good (a very good herbicidal activity is given at values of at least 85)” throughout.

Consider `Cc1ncoc1-c1nc(C2CC2)ncc1-c1cc(C(F)(F)F)ccc1Br` [Ex. 263], for which the herbicidal activity entry with Alopecurus myosuroides (1000 g/ha), in the assay on Avena fatua (1000 g/ha), with Echinocloa crus-galli [1] (1000 g/ha), with Apera spica-venti (1000 g/ha) and with Echinocloa crus-galli [2] (1000 g/ha) was “very good (a very good herbicidal activity is given at values of at least 85)” in each case.

As to `C/C=C/c1nc(C2CC2)ncc1-c1ccccc1Cl` [Ex. 93], the herbicidal activity result in the assay with Alopecurus myosuroides (2000 g/ha), in the assay on Avena fatua (2000 g/ha), with Echinocloa crus-galli [1] (2000 g/ha), with Apera spica-venti (2000 g/ha) and with Echinocloa crus-galli [2] (2000 g/ha) was “very good (a very good herbicidal activity is given at values of at least 85)” in each case.

Take `CC(O)C(O)c1nc(C2CC2)ncc1-c1ccccc1Cl` (stereo not drawn) [Ex. 147]: the herbicidal activity entry with Alopecurus myosuroides (2000 g/ha), with Avena fatua (2000 g/ha), in the assay with Echinocloa crus-galli [1] (2000 g/ha), in the assay with Apera spica-venti (2000 g/ha) and in the assay with Echinocloa crus-galli [2] (2000 g/ha) was “very good (a very good herbicidal activity is given at values of at least 85)” each time.

For `OC(Cc1nc(C2CC2)ncc1-c1ccccc1Cl)c1ccco1` (stereo not drawn) [Ex. 106], the herbicidal activity result in the assay with Alopecurus myosuroides (2000 g/ha), in the assay on Avena fatua (2000 g/ha), in the assay with Echinocloa crus-galli [1] (2000 g/ha), in the assay on Apera spica-venti (2000 g/ha) and with Echinocloa crus-galli [2] (2000 g/ha) was “very good (a very good herbicidal activity is given at values of at least 85)” throughout.

`OC1(Cc2nc(C3CC3)ncc2-c2ccccc2Cl)CCC1` [Ex. 65]: the herbicidal activity result in the assay with Amaranthus retroflexus (2000 g/ha) and in the assay with Echinocloa crus-galli [1] (2000 g/ha) was “very good (a very good herbicidal activity is given at values of at least 85)” throughout.

Consider `Brc1ccccc1-c1cnc(C2CC2)nc1C=C1CCC1` [Ex. 157], for which the herbicidal activity entry in the assay with Alopecurus myosuroides (2000 g/ha), with Avena fatua (2000 g/ha), with Echinocloa crus-galli [1] (2000 g/ha), in the assay on Apera spica-venti (2000 g/ha) and in the assay on Echinocloa crus-galli [2] (2000 g/ha) was “very good (a very good herbicidal activity is given at values of at least 85)” each time.

As to `Brc1ccccc1-c1cnc(C2CC2)nc1-c1cocn1` [Ex. 287], the herbicidal activity entry with Alopecurus myosuroides (1000 g/ha), with Avena fatua (1000 g/ha), with Echinocloa crus-galli [1] (1000 g/ha), in the assay on Apera spica-venti (1000 g/ha) and with Echinocloa crus-galli [2] (1000 g/ha) was “very good (a very good herbicidal activity is given at values of at least 85)” in each case.

Turning to `CCOC(=O)Cc1nc(OC)ncc1-c1ccccc1Cl` [Ex. 226], the herbicidal activity result with Amaranthus retroflexus (500 g/ha) was “very good (a very good herbicidal activity is given at values of at least 85)”.

`OC(c1ccccc1)C(O)c1nc(C2CC2)ncc1-c1ccccc1Cl` (stereo not drawn) [Ex. 153]: the herbicidal activity result in the assay on Alopecurus myosuroides (2000 g/ha), in the assay on Avena fatua (2000 g/ha), in the assay on Echinocloa crus-galli [1] (2000 g/ha), with Apera spica-venti (2000 g/ha) and in the assay with Echinocloa crus-galli [2] (2000 g/ha) was “very good (a very good herbicidal activity is given at values of at least 85)” in each case.

As to `Cc1occc1-c1nc(C2CC2)ncc1-c1ccccc1Br` [Ex. 238], the herbicidal activity result in the assay with Amaranthus retroflexus (2000 g/ha) and in the assay with Echinocloa crus-galli [1] (2000 g/ha) was “very good (a very good herbicidal activity is given at values of at least 85)” each time.

Regarding `Cc1ncoc1-c1nc(C2CC2)ncc1-c1cc(F)ccc1Cl` [Ex. 236], the herbicidal activity entry with Alopecurus myosuroides (2000 g/ha), in the assay on Avena fatua (2000 g/ha), in the assay on Echinocloa crus-galli [1] (2000 g/ha), with Apera spica-venti (2000 g/ha) and in the assay with Echinocloa crus-galli [2] (2000 g/ha) was “very good (a very good herbicidal activity is given at values of at least 85)” in each case.

In the case of `Clc1ccccc1-c1cnc(C2CC2)nc1/C=C/c1c(Cl)ccc(Cl)c1Cl` [Ex. 232], the herbicidal activity entry with Amaranthus retroflexus (2000 g/ha) is reported as “very good (a very good herbicidal activity is given at values of at least 85)”.

`COc1ccc(-c2nc(C3CC3)ncc2-c2ccccc2Cl)cc1` [Ex. 164]: the herbicidal activity entry in the assay with Amaranthus retroflexus (2000 g/ha) is listed as “very good (a very good herbicidal activity is given at values of at least 85)”.

As to `COC(=O)Cc1nc(C2CC2)ncc1-c1ccccc1Cl` [Ex. 32], the herbicidal activity entry in the assay on Alopecurus myosuroides (2000 g/ha), in the assay on Avena fatua (2000 g/ha), in the assay on Echinocloa crus-galli [1] (2000 g/ha), in the assay with Apera spica-venti (2000 g/ha) and in the assay on Echinocloa crus-galli [2] (2000 g/ha) was “very good (a very good herbicidal activity is given at values of at least 85)” in each case.

With `Brc1ccccc1-c1cnc(C2CC2)nc1-c1csc2ccccc12` [Ex. 47], the herbicidal activity result in the assay on Amaranthus retroflexus (1000 g/ha) is on record as “very good (a very good herbicidal activity is given at values of at least 85)”.

As to `O=C(O)/C=C/c1nc(C2CC2)ncc1-c1ccccc1Cl` [Ex. 131], the herbicidal activity entry in the assay on Amaranthus retroflexus (2000 g/ha) and with Echinocloa crus-galli [1] (2000 g/ha) was “very good (a very good herbicidal activity is given at values of at least 85)” each time.
